In PubChem BioAssay (NCI):
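In this assay, cells in 96-well plates receive the compound at five concentrations for 48 hours. Endpoints are linearly interpolated between the surrounding concentrations. The concentration for full growth arrest is given as TGI.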

Assays:
Experiment in all cases: NCI anticancer screen, dose series, 48 h
SW-620 colon = tested on: SW-620 colon
IGROV1 ovarian = tested on: IGROV1 ovarian
NCI-H23 lung = tested on: NCI-H23 lung
CAKI-1 renal = tested on: CAKI-1 renal
M19-MEL melanoma = tested on: M19-MEL melanoma
XF 498 CNS = tested on: XF 498 CNS
MOLT-4 leukemia = tested on: MOLT-4 leukemia
EKVX NSCLC = tested on: EKVX NSCLC
OVCAR-3 ovarian = tested on: OVCAR-3 ovarian
TK-10 renal = tested on: TK-10 renal
COLO 205 colon = tested on: COLO 205 colon
OVCAR-5 ovarian = tested on: OVCAR-5 ovarian
NCI-H226 lung = tested on: NCI-H226 lung
SF-295 CNS = tested on: SF-295 CNS
A549 NSCLC = tested on: A549 NSCLC
SK-MEL-5 melanoma = tested on: SK-MEL-5 melanoma
HCT-116 colon = tested on: HCT-116 colon
MALME-3M melanoma = tested on: MALME-3M melanoma
ACHN renal = tested on: ACHN renal
SN12C renal = tested on: SN12C renal
SK-MEL-28 melanoma = tested on: SK-MEL-28 melanoma
HOP-92 NSCLC = tested on: HOP-92 NSCLC
NCI-H460 lung = tested on: NCI-H460 lung
OVCAR-4 ovarian = tested on: OVCAR-4 ovarian
HL-60(TB) leukemia = tested on: HL-60(TB) leukemia
UACC-62 melanoma = tested on: UACC-62 melanoma
OVCAR-8 ovarian = tested on: OVCAR-8 ovarian
HCC-2998 colon = tested on: HCC-2998 colon
HOP-62 NSCLC = tested on: HOP-62 NSCLC
SNB-75 CNS = tested on: SNB-75 CNS
HT29 colon = tested on: HT29 colon
SNB-19 CNS = tested on: SNB-19 CNS
SF-539 CNS = tested on: SF-539 CNS
SNB-78 CNS = tested on: SNB-78 CNS
A498 renal = tested on: A498 renal
RXF 393 renal = tested on: RXF 393 renal
LXFL 529 NSCLC = tested on: LXFL 529 NSCLC
HCT-15 colon = tested on: HCT-15 colon
RXF-631 renal = tested on: RXF-631 renal
UACC-257 melanoma = tested on: UACC-257 melanoma
K-562 leukemia = tested on: K-562 leukemia
UO-31 renal = tested on: UO-31 renal
786-0 renal = tested on: 786-0 renal
DLD-1 colon = tested on: DLD-1 colon
RPMI-8226 leukemia = tested on: RPMI-8226 leukemia
KM12 colon = tested on: KM12 colon
U251 CNS = tested on: U251 CNS
SK-OV-3 ovarian = tested on: SK-OV-3 ovarian
LOX IMVI melanoma = tested on: LOX IMVI melanoma
M14 melanoma = tested on: M14 melanoma
SR leukemia = tested on: SR leukemia
KM20L2 colon = tested on: KM20L2 colon
SK-MEL-2 melanoma = tested on: SK-MEL-2 melanoma
SF-268 CNS = tested on: SF-268 CNS
CCRF-CEM leukemia = tested on: CCRF-CEM leukemia
DMS 273 small cell lung = tested on: DMS 273 small cell lung
NCI-H522 lung = tested on: NCI-H522 lung
HOP-18 NSCLC = tested on: HOP-18 NSCLC
DMS 114 small cell lung = tested on: DMS 114 small cell lung

O=C(COc1ccc2c(=O)cc(-c3ccc(Cl)cc3)oc2c1)N1CCN(c2ccccc2)CC1
TGI (SW-620 colon): > 100 µM | TGI (IGROV1 ovarian): > 100 µM | TGI (NCI-H23 lung): > 100 µM | TGI (CAKI-1 renal): > 100 µM | TGI (M19-MEL melanoma): > 100 µM | TGI (XF 498 CNS): > 100 µM | TGI (MOLT-4 leukemia): > 100 µM | TGI (EKVX NSCLC): > 100 µM | TGI (OVCAR-3 ovarian): > 100 µM | TGI (TK-10 renal): > 100 µM | TGI (COLO 205 colon): > 100 µM | TGI (OVCAR-5 ovarian): > 100 µM | TGI (NCI-H226 lung): > 100 µM | TGI (SF-295 CNS): > 100 µM | TGI (A549 NSCLC): > 100 µM | TGI (SK-MEL-5 melanoma): > 100 µM | TGI (HCT-116 colon): > 100 µM | TGI (MALME-3M melanoma): > 100 µM | TGI (ACHN renal): > 100 µM | TGI (SN12C renal): > 100 µM | TGI (SK-MEL-28 melanoma): > 100 µM | TGI (HOP-92 NSCLC): > 100 µM | TGI (NCI-H460 lung): > 100 µM | TGI (OVCAR-4 ovarian): > 100 µM | TGI (HL-60(TB) leukemia): > 100 µM | TGI (UACC-62 melanoma): > 100 µM | TGI (OVCAR-8 ovarian): > 100 µM | TGI (HCC-2998 colon): > 100 µM | TGI (HOP-62 NSCLC): > 100 µM | TGI (SNB-75 CNS): > 100 µM | TGI (HT29 colon): > 100 µM | TGI (SNB-19 CNS): > 100 µM | TGI (SF-539 CNS): > 100 µM | TGI (SNB-78 CNS): > 100 µM | TGI (A498 renal): > 100 µM | TGI (RXF 393 renal): > 100 µM | TGI (LXFL 529 NSCLC): > 100 µM | TGI (HCT-15 colon): > 100 µM | TGI (RXF-631 renal): > 100 µM | TGI (UACC-257 melanoma): > 100 µM | TGI (K-562 leukemia): > 100 µM | TGI (UO-31 renal): > 100 µM | TGI (786-0 renal): > 100 µM | TGI (DLD-1 colon): > 100 µM | TGI (RPMI-8226 leukemia): > 100 µM | TGI (KM12 colon): > 100 µM | TGI (U251 CNS): > 100 µM | TGI (SK-OV-3 ovarian): > 100 µM | TGI (LOX IMVI melanoma): > 100 µM | TGI (M14 melanoma): > 100 µM | TGI (SR leukemia): > 100 µM | TGI (KM20L2 colon): > 100 µM | TGI (SK-MEL-2 melanoma): > 100 µM | TGI (SF-268 CNS): > 100 µM

Cc1ccc(S(=O)(=O)CC(=O)CC(=O)C(=O)Nc2cccc(C(F)(F)F)c2)cc1
TGI (SW-620 colon): > 100 µM | TGI (IGROV1 ovarian): > 100 µM | TGI (NCI-H23 lung): > 100 µM | TGI (CAKI-1 renal): > 100 µM | TGI (M19-MEL melanoma): > 100 µM | TGI (XF 498 CNS): > 100 µM | TGI (MOLT-4 leukemia): > 100 µM | TGI (EKVX NSCLC): > 100 µM | TGI (CCRF-CEM leukemia): > 100 µM | TGI (OVCAR-3 ovarian): > 100 µM | TGI (TK-10 renal): > 100 µM | TGI (NCI-H226 lung): > 100 µM | TGI (SF-295 CNS): > 100 µM | TGI (DMS 273 small cell lung): > 100 µM | TGI (A549 NSCLC): > 100 µM | TGI (NCI-H522 lung): > 100 µM | TGI (SK-MEL-5 melanoma): > 100 µM | TGI (HCT-116 colon): > 100 µM | TGI (MALME-3M melanoma): > 100 µM | TGI (ACHN renal): > 100 µM | TGI (SN12C renal): > 100 µM | TGI (SK-MEL-28 melanoma): > 100 µM | TGI (HOP-92 NSCLC): > 100 µM | TGI (HL-60(TB) leukemia): > 100 µM | TGI (UACC-62 melanoma): > 100 µM | TGI (SNB-75 CNS): > 100 µM | TGI (HT29 colon): > 100 µM | TGI (SNB-19 CNS): > 100 µM | TGI (SF-539 CNS): > 100 µM | TGI (SNB-78 CNS): > 100 µM | TGI (LXFL 529 NSCLC): > 100 µM | TGI (HCT-15 colon): > 100 µM | TGI (RXF-631 renal): > 100 µM | TGI (UACC-257 melanoma): > 100 µM | TGI (K-562 leukemia): > 100 µM | TGI (UO-31 renal): > 100 µM | TGI (786-0 renal): > 100 µM | TGI (DLD-1 colon): > 100 µM | TGI (RPMI-8226 leukemia): > 100 µM | TGI (KM12 colon): > 100 µM | TGI (U251 CNS): > 100 µM | TGI (SK-OV-3 ovarian): > 100 µM | TGI (LOX IMVI melanoma): > 100 µM | TGI (M14 melanoma): > 100 µM | TGI (SR leukemia): > 100 µM | TGI (KM20L2 colon): > 100 µM | TGI (SK-MEL-2 melanoma): > 100 µM | TGI (SF-268 CNS): > 100 µM

Cc1nc(N)nc(N)c1CCCCc1ccccc1
TGI (SW-620 colon): > 100 µM | TGI (IGROV1 ovarian): > 100 µM | TGI (NCI-H23 lung): 20.6 µM | TGI (CAKI-1 renal): > 100 µM | TGI (M19-MEL melanoma): 30.6 µM | TGI (MOLT-4 leukemia): 63.5 µM | TGI (EKVX NSCLC): > 100 µM | TGI (CCRF-CEM leukemia): 24.8 µM | TGI (OVCAR-3 ovarian): 99.4 µM | TGI (TK-10 renal): 88.7 µM | TGI (COLO 205 colon): 21 µM | TGI (OVCAR-5 ovarian): > 100 µM | TGI (SF-295 CNS): > 100 µM | TGI (DMS 273 small cell lung): 20.5 µM | TGI (A549 NSCLC): > 100 µM | TGI (NCI-H522 lung): 31.6 µM | TGI (SK-MEL-5 melanoma): 17.1 µM | TGI (HCT-116 colon): > 100 µM | TGI (MALME-3M melanoma): 26.5 µM | TGI (ACHN renal): > 100 µM | TGI (SN12C renal): > 100 µM | TGI (HOP-92 NSCLC): 54.6 µM | TGI (NCI-H460 lung): 81.4 µM | TGI (OVCAR-4 ovarian): > 100 µM | TGI (HL-60(TB) leukemia): 20 µM | TGI (UACC-62 melanoma): 76.8 µM | TGI (OVCAR-8 ovarian): > 100 µM | TGI (HCC-2998 colon): 22.7 µM | TGI (HOP-62 NSCLC): 56.4 µM | TGI (SNB-75 CNS): > 100 µM | TGI (HOP-18 NSCLC): > 100 µM | TGI (HT29 colon): 16.9 µM | TGI (SNB-19 CNS): > 100 µM | TGI (SF-539 CNS): 36 µM | TGI (SNB-78 CNS): > 100 µM | TGI (A498 renal): > 100 µM | TGI (RXF 393 renal): 49.8 µM | TGI (LXFL 529 NSCLC): 73.8 µM | TGI (HCT-15 colon): 63.3 µM | TGI (RXF-631 renal): 39.1 µM | TGI (UACC-257 melanoma): 28.6 µM | TGI (K-562 leukemia): 18.1 µM | TGI (UO-31 renal): > 100 µM | TGI (786-0 renal): 19 µM | TGI (DLD-1 colon): > 100 µM | TGI (RPMI-8226 leukemia): 45.8 µM | TGI (KM12 colon): > 100 µM | TGI (U251 CNS): 51.4 µM | TGI (DMS 114 small cell lung): 24.1 µM | TGI (SK-OV-3 ovarian): > 100 µM | TGI (LOX IMVI melanoma): 23.9 µM | TGI (M14 melanoma): 19.7 µM | TGI (SR leukemia): 38.4 µM | TGI (KM20L2 colon): 63.3 µM | TGI (SK-MEL-2 melanoma): 40.9 µM | TGI (SF-268 CNS): 45.7 µM
